# Measurements published in patent US20020049205A1, “Pyrazole antimicrobial agents” (priority 2000, published 2002).
# Tests used:
# [1] = molecular target: T1, Sigma^70 saturated E. coli RNA Polymerase (Escherichia coli, UniProt P0A7Z4+P0A800+P0A8T7+P0A8V2); experiment: IC50 assay, inhibition of RNA polymerase; type: biochemical
# T1 construct: purchased Epicenter
# Experimental: One common assay involves evaluation of the compounds as RNA polymerase inhibitors. In this assay, buffer (250 mM KCl, 5% glycerol, 10 mM MgCl2, 0.1 mg/ml BSA) is combined with 6 mM β-M.E., PT5 DNA template, and 1.3 μg/rxn Sigma^70 saturated E. coli RNA Polymerase (Epicenter). The compound is then added in a manner not to exceed 5% DMSO. Nucleotide triphosphates are then added at the following concentration: 250 μM ATP, CTP and UTP with 100 μM cold CTP and 50 μM α-^32P CTP. The mixture is incubated for 10 min at about 37° C. A [2×] loading buffer is added and the mixture is then run on a 6% urea denaturing PAGE until bromophenol blue reaches the edge of plate. The gel is soaked (about 20 minutes in 10% MeOH and 10% acetic acid, to remove urea), then dried (about 55 minutes at about 85° C. (BioRad Gel Drier)) and exposed to a Phospho Imaging Plate for 1 hour. The plate is then read on a Fujix Bas1000 Imaging System and quantified using MacBas v2.0 software. An IC50 (in μM) can be calculated as the concentration of a drug which reduces the enzyme activity to 50% of the control.
# In this assay, buffer (250 mM KCl, 5% Glycerol, 10 mM MgCl2, 0.1 mg/ml bovine serum albumin (BSA)) is combined with 6 mM β-mercaptoethanol, PT5 DNA template, and 1.3 μg/rxn Sigma^70 saturated E. coli RNA Polymerase (obtained from Epicenter). The compound is then added in a manner not to exceed 5% DMSO. Nucleotide triphosphates are then added at the following concentration: 250 μM ATP, CTP and UTP with 100 μM cold CTP and 50 μM α-32P CTP. The mixture is incubated for 10 min at about 37° C. A [2×] loading buffer is added and the mixture is then run on a 6% urea denaturing PAGE until bromophenol blue reaches the edge of plate. The gel is soaked (about 20 minutes in 10% MeOH and 10% acetic acid, to remove urea), then dried (about 55 minutes at about 85° C. (BioRad Gel Drier)) and exposed to a Phospho Imaging Plate for 1 hour. The plate is then read on a Fujix Bas1000 Imaging System and quantified using MacBas v2.0 software. An IC50 (in μM) can be calculated as the concentration of a compound of the invention that reduces the enzyme activity to 50% of the control. For the sake of clarity, the above-described assay is used to determine the IC50 values referenced in the claims. However, the skilled artisan will recognize that other methods can be used to determine an IC50 value.
# B. su = experiment: Minimum Inhibitory Concentration assay, B. su; type: cell-based; conditions: LB medium, 16 hours, 37° C.
# Experimental: (§1) For Minimum Inhibitory Concentration (MIC) determinations for selected bacteria, log phase growing bacteria are re-suspended at 1×10^5 bacteria per mL in LB medium. The compound is added and two-fold dilutions are made. The final volume in the 96-well plate is about 100 μL. The plate is incubated at 37° C. in the dark with shaking. After 16 hours of incubation, growth is monitored by reading A600 or by visual inspection. MIC is defined as the minimum concentration of drug resulting in inhibition of visible growth of bacterial under the conditions described (above) in National Committee for Clinical Laboratory Standards 1993. Methods for dilution antimicrobial susceptibility tests for bacteria that grow aerobically. Approved standard M7-A3; National Committee for Clinical Laboratory Standards: Villanova, Pa.
# as §1, with “MIC” for “Minimum Inhibitory Concentration (MIC)”
# S. au = experiment: Minimum Inhibitory Concentration assay, S. au; type: cell-based; conditions: LB medium, 16 hours, 37° C.
# Experimental: as §1
# as §1, with “MIC” for “Minimum Inhibitory Concentration (MIC)”
# E.c(tolC) = experiment: Minimum Inhibitory Concentration assay, E.c(tolC); type: cell-based; conditions: 16 h, read-out: MIC (μM) E.c(tolC)
# Experimental: as §1
# as §1, with “MIC” for “Minimum Inhibitory Concentration (MIC)”
# [2] = Table 1, compounds of Formula 1
# [3] = Table 2, compounds of Formula 13
# T1 sequence (P0A8V2 whole entry): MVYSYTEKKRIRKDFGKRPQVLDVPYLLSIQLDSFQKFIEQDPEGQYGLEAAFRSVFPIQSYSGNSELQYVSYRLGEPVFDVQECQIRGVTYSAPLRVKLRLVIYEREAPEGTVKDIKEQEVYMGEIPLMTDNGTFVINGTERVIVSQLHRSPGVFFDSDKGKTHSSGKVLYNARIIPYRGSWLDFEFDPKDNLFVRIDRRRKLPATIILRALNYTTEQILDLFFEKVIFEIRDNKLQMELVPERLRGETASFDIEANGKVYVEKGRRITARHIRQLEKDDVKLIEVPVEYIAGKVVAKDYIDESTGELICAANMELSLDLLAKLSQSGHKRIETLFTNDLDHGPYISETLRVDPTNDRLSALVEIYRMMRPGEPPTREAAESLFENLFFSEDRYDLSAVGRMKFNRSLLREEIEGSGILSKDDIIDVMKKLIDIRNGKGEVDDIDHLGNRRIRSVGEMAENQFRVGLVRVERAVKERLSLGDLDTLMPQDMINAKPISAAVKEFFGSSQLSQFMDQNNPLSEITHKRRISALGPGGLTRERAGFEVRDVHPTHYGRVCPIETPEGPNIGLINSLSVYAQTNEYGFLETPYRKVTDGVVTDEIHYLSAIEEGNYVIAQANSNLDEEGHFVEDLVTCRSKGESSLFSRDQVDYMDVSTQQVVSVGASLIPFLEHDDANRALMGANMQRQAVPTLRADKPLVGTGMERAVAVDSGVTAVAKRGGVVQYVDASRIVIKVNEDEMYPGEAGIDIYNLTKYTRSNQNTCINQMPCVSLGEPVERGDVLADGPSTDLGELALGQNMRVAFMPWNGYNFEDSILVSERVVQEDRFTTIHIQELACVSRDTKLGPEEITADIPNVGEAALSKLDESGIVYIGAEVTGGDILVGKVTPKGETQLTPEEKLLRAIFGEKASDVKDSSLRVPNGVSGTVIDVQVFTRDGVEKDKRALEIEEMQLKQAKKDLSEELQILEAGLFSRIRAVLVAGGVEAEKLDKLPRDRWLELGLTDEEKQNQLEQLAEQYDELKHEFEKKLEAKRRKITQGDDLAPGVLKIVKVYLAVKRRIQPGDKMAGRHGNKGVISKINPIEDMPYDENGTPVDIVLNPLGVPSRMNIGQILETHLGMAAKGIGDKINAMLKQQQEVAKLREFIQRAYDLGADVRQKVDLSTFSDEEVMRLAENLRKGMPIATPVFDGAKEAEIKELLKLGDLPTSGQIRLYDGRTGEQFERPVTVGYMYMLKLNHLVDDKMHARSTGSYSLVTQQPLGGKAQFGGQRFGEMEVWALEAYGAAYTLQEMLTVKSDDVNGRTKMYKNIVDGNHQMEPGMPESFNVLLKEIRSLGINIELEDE
# T1 sequence (P0A8T7 whole entry): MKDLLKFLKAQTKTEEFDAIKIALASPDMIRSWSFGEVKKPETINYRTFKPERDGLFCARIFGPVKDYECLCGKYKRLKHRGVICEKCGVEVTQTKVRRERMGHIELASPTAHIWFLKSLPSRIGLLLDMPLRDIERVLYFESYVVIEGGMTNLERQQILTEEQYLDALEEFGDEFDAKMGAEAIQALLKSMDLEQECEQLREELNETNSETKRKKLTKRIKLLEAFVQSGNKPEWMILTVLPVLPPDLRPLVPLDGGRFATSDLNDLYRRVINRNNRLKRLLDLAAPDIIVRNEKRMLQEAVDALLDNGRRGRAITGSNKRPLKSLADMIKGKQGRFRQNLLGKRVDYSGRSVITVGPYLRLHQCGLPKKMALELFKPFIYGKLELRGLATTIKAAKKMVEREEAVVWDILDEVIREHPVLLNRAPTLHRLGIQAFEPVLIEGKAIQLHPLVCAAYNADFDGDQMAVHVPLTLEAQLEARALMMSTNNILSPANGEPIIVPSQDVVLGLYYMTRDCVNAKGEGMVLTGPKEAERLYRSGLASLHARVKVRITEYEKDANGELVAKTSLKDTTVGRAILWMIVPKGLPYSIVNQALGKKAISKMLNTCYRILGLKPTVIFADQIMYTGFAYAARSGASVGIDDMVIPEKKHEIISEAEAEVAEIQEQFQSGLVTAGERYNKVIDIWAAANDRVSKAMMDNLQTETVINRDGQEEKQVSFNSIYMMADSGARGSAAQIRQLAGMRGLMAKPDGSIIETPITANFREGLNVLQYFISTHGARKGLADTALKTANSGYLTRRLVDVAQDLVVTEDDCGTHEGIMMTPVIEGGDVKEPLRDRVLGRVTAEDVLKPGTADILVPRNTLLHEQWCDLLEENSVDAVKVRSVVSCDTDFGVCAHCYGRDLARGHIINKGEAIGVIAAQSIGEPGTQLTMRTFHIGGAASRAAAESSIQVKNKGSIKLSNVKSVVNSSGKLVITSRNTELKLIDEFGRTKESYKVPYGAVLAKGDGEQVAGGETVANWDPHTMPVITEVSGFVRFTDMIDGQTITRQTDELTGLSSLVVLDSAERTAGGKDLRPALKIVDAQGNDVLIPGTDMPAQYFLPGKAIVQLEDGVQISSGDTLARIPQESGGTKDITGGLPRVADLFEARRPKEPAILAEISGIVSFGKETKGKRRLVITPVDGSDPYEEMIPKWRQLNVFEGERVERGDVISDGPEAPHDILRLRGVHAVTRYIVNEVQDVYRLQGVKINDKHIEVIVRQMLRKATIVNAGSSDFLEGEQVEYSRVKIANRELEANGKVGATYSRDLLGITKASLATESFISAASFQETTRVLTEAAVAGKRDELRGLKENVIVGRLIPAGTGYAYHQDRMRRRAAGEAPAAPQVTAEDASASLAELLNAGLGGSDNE
# T1 sequence (P0A7Z4 whole entry): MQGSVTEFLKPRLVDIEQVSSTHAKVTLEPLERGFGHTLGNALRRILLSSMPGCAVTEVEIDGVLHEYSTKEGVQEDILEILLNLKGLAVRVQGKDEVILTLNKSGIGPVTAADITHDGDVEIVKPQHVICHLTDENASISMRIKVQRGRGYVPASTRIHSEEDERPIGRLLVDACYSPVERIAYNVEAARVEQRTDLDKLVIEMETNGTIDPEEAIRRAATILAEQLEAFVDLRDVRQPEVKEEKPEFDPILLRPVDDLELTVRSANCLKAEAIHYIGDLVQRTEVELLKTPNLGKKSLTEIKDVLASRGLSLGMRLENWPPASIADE
# T1 sequence (P0A800 whole entry): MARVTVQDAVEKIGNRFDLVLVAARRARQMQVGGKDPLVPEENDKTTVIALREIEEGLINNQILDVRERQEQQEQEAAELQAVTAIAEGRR
SMILES,"IC50 [1, 2]",MIC (B. su; Table 1),MIC (S. au; Table 1),MIC (E.c(tolC)),"IC50 ([1]; Table 3, heteroaryl compounds)",MIC (B. su; Table 3),MIC (S. au; Table 3),"IC50 [1, 3]",MIC (B. su; Table 2),MIC (S. au; Table 2)
FC(F)(F)c1cc(-c2cn[nH]c2-c2cccc(Cl)c2)ccc1Cl [Example 9],< 500 µM,< 500 µM,< 500 µM,< 500 µM,–,–,–,–,–,–
COc1ccc(-c2[nH]ncc2-c2ccccc2)cc1 [Example 6],> 500 µM,< 500 µM,< 500 µM,< 500 µM,–,–,–,–,–,–
Fc1cccc(-c2c[nH]nc2-c2ccsc2)c1 [Example 38],–,–,–,< 500 µM,< 500 µM,< 500 µM,< 500 µM,–,–,–
NS(=O)(=O)c1ccc(CCNc2ccc(-c3c[nH]nc3-c3ccc(F)cc3)cc2C(F)(F)F)cc1 [Example 22],< 500 µM,< 500 µM,< 500 µM,< 500 µM,–,–,–,–,–,–
Clc1ccc(-c2[nH]ncc2-c2ccccc2)cc1 [Example 3],> 500 µM,> 500 µM,> 500 µM,> 500 µM,–,–,–,–,–,–
Fc1ccc(-c2n[nH]cc2-c2ccc(NCCN3CCNCC3)c(C(F)(F)F)c2)cc1 [Example 20],< 500 µM,< 500 µM,< 500 µM,< 500 µM,–,–,–,–,–,–
"O=c1[nH][nH]c(-c2cccc(C(F)(F)F)c2)c1-c1ccccc1 [Example 14, 4-phenyl-5-(3-trifluoromethylphenyl)-1,2-dihydropyrazol-3-one]",–,–,–,< 500 µM,–,–,–,< 500 µM,< 500 µM,< 500 µM
O=[N+]([O-])c1cccc(-c2c[nH]nc2-c2ccc(N3CCCCC3)c(C(F)(F)F)c2)c1 [Example 33],< 500 µM,< 500 µM,< 500 µM,> 500 µM,–,–,–,–,–,–
Nc1cccc(-c2c[nH]nc2-c2ccc(F)c(C(F)(F)F)c2)c1 [Example 34],< 500 µM,< 500 µM,< 500 µM,< 500 µM,–,–,–,–,–,–
NC1CCN(c2ccc(-c3c[nH]nc3-c3ccc(F)cc3)cc2C(F)(F)F)C1 (centres unmarked) [Example 24],< 500 µM,< 500 µM,< 500 µM,< 500 µM,–,–,–,–,–,–
COc1cccc(-c2[nH]ncc2-c2ccccc2)c1 [Example 2],> 500 µM,< 500 µM,< 500 µM,< 500 µM,–,–,–,–,–,–
Clc1cccc(-c2cn[nH]c2-c2ccc(Cl)c(Cl)c2)c1 [Example 7],> 500 µM,< 500 µM,< 500 µM,< 500 µM,–,–,–,–,–,–
Fc1ccc(-c2cn[nH]c2-c2cccc(Cl)c2)cc1C(F)(F)F [Example 11],> 500 µM,< 500 µM,< 500 µM,< 500 µM,–,–,–,–,–,–
CCNC1CCN(c2ccc(-c3c[nH]nc3-c3ccc(F)cc3)cc2C(F)(F)F)C1 (centres unmarked) [Example 19],< 500 µM,< 500 µM,< 500 µM,< 500 µM,–,–,–,–,–,–
Fc1ccc(-c2n[nH]cc2-c2ccc(NCCNCc3ccccc3)c(C(F)(F)F)c2)cc1 [Example 21],< 500 µM,< 500 µM,< 500 µM,< 500 µM,–,–,–,–,–,–
O=C(Nc1ccc(Cl)c(C(F)(F)F)c1)NC1CCN(c2ccc(-c3c[nH]nc3-c3ccc(F)cc3)cc2C(F)(F)F)C1 (centres unmarked) [Example 25],< 500 µM,< 500 µM,< 500 µM,> 500 µM,–,–,–,–,–,–
O=[N+]([O-])c1cccc(-c2c[nH]nc2-c2ccc(F)c(C(F)(F)F)c2)c1 [Example 32],< 500 µM,< 500 µM,< 500 µM,> 500 µM,–,–,–,–,–,–
O=C(COc1ccccc1)Nc1cccc(-c2c[nH]nc2-c2ccc(F)c(C(F)(F)F)c2)c1 [Example 35],< 500 µM,> 500 µM,< 500 µM,> 500 µM,–,–,–,–,–,–

SMILES,"IC50 [1, 2]",MIC (B. su; Table 1),MIC (S. au; Table 1),MIC (E.c(tolC)),"IC50 ([1]; Table 3, heteroaryl compounds)",MIC (B. su; Table 3),MIC (S. au; Table 3),"IC50 [1, 3]",MIC (B. su; Table 2),MIC (S. au; Table 2)
CS(=O)(=O)Nc1cccc(-c2c[nH]nc2-c2ccc(F)c(C(F)(F)F)c2)c1 [Example 36],< 500 µM,< 500 µM,< 500 µM,< 500 µM,–,–,–,–,–,–
FC(F)(F)c1cc(-c2cn[nH]c2-c2ccccc2)ccc1Cl [Example 10],< 500 µM,< 500 µM,< 500 µM,< 500 µM,–,–,–,–,–,–
Fc1ccc(-c2n[nH]cc2-c2ccc(F)c(C(F)(F)F)c2)cc1 [Example 18],< 500 µM,< 500 µM,< 500 µM,< 500 µM,–,–,–,–,–,–
Clc1ccc(-c2[nH]ncc2-c2ccccc2)cc1Cl [Example 4],> 500 µM,< 500 µM,< 500 µM,< 500 µM,–,–,–,–,–,–
O=C(NCCNc1cc(-c2c[nH]nc2-c2ccc(F)cc2)cc(C(F)(F)F)c1)Nc1ccc(Cl)c(C(F)(F)F)c1 [Example 29],< 500 µM,< 500 µM,< 500 µM,> 500 µM,–,–,–,–,–,–
O=C(NCCNc1cc(-c2c[nH]nc2-c2ccc(F)cc2)cc(C(F)(F)F)c1)c1ccccc1 [Example 28],> 500 µM,< 500 µM,< 500 µM,< 500 µM,–,–,–,–,–,–
NCCCNc1cc(-c2c[nH]nc2-c2ccc(F)cc2)cc(C(F)(F)F)c1 [Example 30],> 500 µM,< 500 µM,< 500 µM,< 500 µM,–,–,–,–,–,–
NCCNc1cc(-c2c[nH]nc2-c2ccc(F)cc2)cc(C(F)(F)F)c1 [Example 27],< 500 µM,< 500 µM,< 500 µM,< 500 µM,–,–,–,–,–,–
FC(F)(F)c1cc(-c2cn[nH]c2-c2cccc(Cl)c2)ccc1N1CCCC1 [Example 12],> 500 µM,< 500 µM,< 500 µM,< 500 µM,–,–,–,–,–,–
Cc1ccc(-c2[nH]ncc2-c2ccccc2)cc1 [Example 5],> 500 µM,< 500 µM,< 500 µM,< 500 µM,–,–,–,–,–,–
CS(=O)(=O)Nc1ccc(CCNc2ccc(-c3c[nH]nc3-c3ccc(F)cc3)cc2C(F)(F)F)cc1 [Example 23],> 500 µM,> 500 µM,> 500 µM,> 500 µM,–,–,–,–,–,–
"O=c1[nH][nH]c(-c2ccccc2)c1-c1cccc(C(F)(F)F)c1 [Example 16, 5-phenyl-4-(3-trifluoromethylphenyl)-1,2-dihydropyrazol-3-one]",–,–,–,< 500 µM,–,–,–,> 500 µM,< 500 µM,< 500 µM
Fc1ccc(-c2n[nH]cc2-c2cc(F)cc(C(F)(F)F)c2)cc1 [Example 26],< 500 µM,< 500 µM,< 500 µM,< 500 µM,–,–,–,–,–,–
"O=c1[nH][nH]c(-c2ccc(Cl)cc2)c1-c1ccccc1 [Example 15, 5-(4-chlorophenyl)-4-phenyl-1,2-dihydropyrazol-3-one]",–,–,–,< 500 µM,–,–,–,> 500 µM,< 500 µM,< 500 µM
"O=c1[nH][nH]c(-c2ccc(Cl)cc2)c1-c1cccc(C(F)(F)F)c1 [Example 17, 5-(4-chlorophenyl)-4-(3-trifluoromethylphenyl)-1,2-dihydropyrazol-3-one]",–,–,–,< 500 µM,–,–,–,< 500 µM,< 500 µM,< 500 µM
Cc1c(-c2c[nH]nc2-c2ccc(F)cc2)sc2ccccc12 [Example 37],–,–,–,< 500 µM,< 500 µM,< 500 µM,< 500 µM,–,–,–
Clc1cccc(-c2[nH]ncc2-c2ccc(Cl)c(Cl)c2)c1 [Example 8],< 500 µM,< 500 µM,< 500 µM,< 500 µM,–,–,–,–,–,–
